The values below come from PMC6494957 (Frontiers in Microbiology, 2019).

The structures appear in SMILES notation. Values after ≈ are worked out from the molar mass of the structure shown. Positions of bridges follow the written chain, without caps; N, C: chain ends. Non-standard residues stand in square brackets, D forms with d. Residues, ends and D or L forms follow the SMILES beside them. Dab = NCC[C@H](N)C(=O)O

Experiment [1] deals with E. coli ATCC 25922. Put plainly: microbe, parasite or virus in culture. As to conditions: for MIC: Escherichia coli, ATCC25922, read-out: MIC, single drug. The protocol:
(§1) The MIC for ampicillin or gentamicin against each isolate was determined for each test to serve as an internal quality control. The MICs of isolates were determined by visual reading and using an EnSpire Multimode Plate Reader 2300 atA600nm.
(§2) Briefly, antimicrobial stock solutions for robenidine and PMBN were prepared at a concentration of 12.8 mg/ml in DMSO. […] A 1 μl aliquot of the first compound from each combination was dispensed along the abscissa (from row A to G) of the 96-well microplate, while the second compound was dispensed along the ordinate (from column 12 to column 3) using an electronic multichannel pipette followed by 89 μl of LB broth. Each well of the plate was inoculated with an aliquot of 10 μl bacterial suspension at a concentration of 1-5 × 10^6 colony forming units (CFU) per ml. Subsequently, the plate was incubated at 37°C for 24 h. The fractional inhibitory concentration index (FICI) described the results of the combinations, and was calculated utilizing the following formula:
(§3) DRI = MIC of drug alone/MIC of drug in combination

Experiment [2] deals with S. pseudintermedius (n = 20) clinical isolates from otitis externa cases in dogs. The experiment in a line: MIC/MBC and checkerboard, canine otitis externa isolates. In kind it is cell-based, Staphylococcus pseudintermedius. Conditions: canine otitis externa; for MIC50 / MIC90: Staphylococcus pseudintermedius; for MIC50: read-out: MIC50, single drug; for MIC90: read-out: MIC90, single drug.
Text: (§4) Escherichia coli ATCC 25922, E. coli ATCC 11229, P. aeruginosa ATCC 27853, P. aeruginosa PA01, Pseudomonas putida ATCC 17428, P. mirabilis ATCC 43071, K. pneumoniae ATCC 13883, A. baumannii ATCC 19606, and A. baumannii ATCC 12457 were used for preliminary susceptibility testing and combination experiments. S. aureus ATCC 29213 and S. pneumoniae ATCC 49619 were used as internal quality controls. A variety of bacterial organisms from both human and canine infections were investigated in this study (n = 119 isolates in total). Twenty-eight clinical Acinetobacter spp. isolates were obtained from cases of human skin and soft tissue infections, including 18 Acinetobacter baumannii and 10 A. calcoaceticus, kindly provided by a person (Institute of Medical and Veterinary Science, South Australia). […] Ninety-one clinical isolates were obtained from cases of canine otitis externa, including seven methicillin-susceptible S. pseudintermedius (MSSP), 13 multidrug- and methicillin-resistant S. pseudintermedius (MRSP) ([Saputra et al., 2017]), 20 beta-haemolytic Streptococcus spp., 30 P. aeruginosa (10 of them resistant to gentamicin and 21 P. mirabilis isolates). These isolates were obtained from the bacterial collection of the national survey of antimicrobial resistance in animals conducted in Australia. Swab samples from dogs with signs of otitis externa were collected by veterinarians and submitted to government, private or university diagnostic laboratories throughout Australia. After routine bacterial identification and the removal of confidential information, the participating veterinary diagnostic laboratories submitted the bacteria and their clinical information to PC2 Laboratories, Australian Centre for Antimicrobial Resistance Ecology, School of Animal and Veterinary Sciences, University of Adelaide, Roseworthy Campus, Roseworthy, SA, Australia, for further study. Thus, animal ethics approval was not required in this study. These organisms were identified to species level using biochemical testing and MALDI-TOF mass spectrometry (Bruker, Preston, VIC, Australia).
as §1
(§5) Briefly, 10 μl aliquots from each duplicate well from the MIC assays (starting from the MIC for each compound) were inoculated onto a sheep blood agar (SBA) plate and incubated at 37°C.
as §2, §3

For experiment [3], the system named is Beta-haemolytic streptococci (n = 20) clinical isolates from otitis externa cases in dogs. The experiment is described as above. Type of experiment: cell-based, beta-haemolytic Streptococcus spp. Conditions: canine otitis externa; for MIC50 / MIC90: Streptococcus; for MIC50: read-out: MIC50, single drug; for MIC90: read-out: MIC90, single drug.
Text: as §4, §1, §5, §2, §3

Experiment [4] concerns S. aureus ATCC 29213. Put plainly: MIC broth microdilution, quality control strain. In kind it is cell-based. As to conditions: Staphylococcus aureus, ATCC29213; S. aureus ATCC 29213, quality control strain. On the procedure: (§6) Luria Bertani (LB) broth (Oxoid, Australia) was applied for MIC testing in lieu of cation-adjusted Mueller–Hinton broth as robenidine has been previously shown to chelate calcium ions. Furthermore, a twofold serial dilution of robenidine was performed in 100% DMSO, with 1 μl dispensed to each well due to the hydrophobicity of the compound ([Abraham et al., 2016]). The MIC for ampicillin or gentamicin against each isolate was determined for each test to serve as an internal quality control. The MICs of isolates were determined by visual reading and using an EnSpire Multimode Plate Reader 2300 atA600nm.
For orientation: In broth dilution the organism is exposed to a series of concentrations in liquid medium.

In experiment [5] the test system is S. pneumoniae ATCC 49619. Put plainly: MIC broth microdilution, quality control strain. Type of experiment: cell-based. Conditions: Streptococcus pneumoniae, ATCC49619; S. pneumoniae ATCC 49619, quality control strain. The protocol:
as §6

In experiment [6] the test system is P. aeruginosa ATCC 27853. Put plainly: microbe, parasite or virus in culture. Conditions: for MIC: Pseudomonas aeruginosa, ATCC27853, read-out: MIC, single drug. On the procedure: as §1, §2, §3
In experiment [7] the test system is P. aeruginosa (n = 30) clinical isolates from otitis externa cases in dogs. Put plainly: MIC/MBC and checkerboard, canine otitis externa isolates. As to conditions: canine otitis externa; for MIC50 / MIC90: Pseudomonas aeruginosa; for MIC50: read-out: MIC50, single drug; for MIC90: read-out: MIC90, single drug. Type of experiment: cell-based, Pseudomonas aeruginosa.
Text: as §4, §1, §5, §2, §3

In experiment [8] the test system is P. mirabilis (n = 21) clinical isolates from otitis externa cases in dogs. The description is as above. In kind it is cell-based, Proteus mirabilis. Conditions: canine otitis externa; for MIC50 / MIC90: Proteus mirabilis; for MIC50: read-out: MIC50, single drug; for MIC90: read-out: MIC90, single drug.
Text: as §4, §1, §5, §2, §3

In experiment [9] the test system is A. baumannii ATCC 12457. The experiment in a line: microbe, parasite or virus in culture. On the procedure: as §1, §2, §3
The subject of experiment [10] is A. baumannii ATCC 19606. The experiment in a line: microbe, parasite or virus in culture. The protocol:
as §1, §2, §3

Experiment [11] relates to A. calcoaceticus (human clinical isolate). Put plainly: microbe, parasite or virus in culture. The protocol:
as §1, §2, §3

The test system of experiment [12] is E. coli ATCC 11229. Put plainly: microbe, parasite or virus in culture. The protocol:
as §1, §2, §3

Experiment [13] relates to K. pneumoniae ATCC 13883. Put plainly: microbe, parasite or virus in culture. On the procedure: as §1, §2, §3
The test system of experiment [14] is P. mirabilis ATCC 43071. The experiment in a line: microbe, parasite or virus in culture. Conditions: ATCC 43071, 24 h. The protocol: as §1, §2, §3
Experiment [15] deals with P. putida ATCC 17428. Put plainly: microbe, parasite or virus in culture. The protocol:
as §1, §2, §3

In experiment [16] the test system is Gram-negative control strains. Put plainly: Checkerboard, summary over Gram-negative strains. In kind it is cell-based. As to conditions: in combination with robenidine; for P. aeruginosa. The protocol: as §2, §3
For experiment [17], the system named is all the cell lines tested (HaCaT, HEK 293, MDCK). The experiment in a line: cells. Conditions: 24 h. On the procedure:
Cells were maintained in Dulbecco’s modified Eagle’s medium (DMEM) with 10% fetal bovine serum (FBS) and 1% PenStrep (100 U/mL Penicillin and 100 μg/mL Streptomycin) at 37°C with 5% CO2. Cells were serially passaged at ∼80% confluence ∼ every 4 days. Assays were performed in duplicate in 96 well plates seeded with ∼25,000 cells per well. […] Briefly, the antimicrobials were prepared by performing a twofold serial dilution at 100× of tested concentration in DMSO. Subsequently, a 1 μl aliquot of each concentration was transferred to a sterile 96-well plate containing fresh DMEM with either 10% FBS. After mixing four times, the media aliquots with different concentrations of antimicrobial were transferred to each well of the 96-well plate seeded with cells, using wells containing 1–2% DMSO only as control. To determine the effect of FBS on the cytotoxicity of each compound, DMEM with 40% FBS containing different concentrations of antimicrobial was prepared as described above. After 24 h of exposure, WST-1 reagent (Cell Proliferation Assay reagent, Roche) at a concentration of 10% was added to each well. Absorbance at A450 nm on a Multiskan Ascent 354 Spectrophotometer (Labsystems) was measured after 1 h of incubation. The IC50 value was determined for each compound against each cell line via non-linear regression (three parameters) using GraphPad Prism v6 software.

With `CC1(C)S[C@@H]2[C@H](NC(=O)[C@H](N)c3ccccc3)C(=O)N2[C@H]1C(=O)O` [Ampicillin, ampicillin], the MIC in experiment [1] was 4 µg/mL; in [4], 1 µg/mL (≈ 2.86 µM); in experiment [5], 0.125 µg/mL (≈ 0.358 µM). Moreover, the MIC50 in [2] and in experiment [3] was 0.125 µg/mL each time. The figures for the MIC90 in experiment [2] and in [3] were 8 µg/mL and 0.25 µg/mL, respectively. In addition, the “MIC range, single drug” value in experiment [2] was in the range of 0.03 to 32 µg/mL; in experiment [3], 0.06 to 0.5 µg/mL.

For `CN[C@@H]1[C@@H](O[C@H]2O[C@H](CO)[C@@H](N)[C@H](O)[C@H]2O)OC2C[C@@H](N)[C@@H](O[C@H]3[C@H](O)[C@@H](O)[C@H](N)C[C@@H]3N)OC2[C@@H]1O` (stereo partly drawn) [Apramycin, apramycin], the MIC in [1] was 8 µg/mL; in [6], 16 µg/mL; in experiment [4] it was 4 µg/mL (≈ 7.41 µM). In addition, the MIC50 (as a rule, the lowest concentration that inhibits either 50% of growth or 50% of the strains tested, depending on the study) in [7] was found to be 32 µg/mL; in [8], 32 µg/mL; in experiment [2] it was 8 µg/mL; in experiment [3], 64 µg/mL. The MIC90 (in general, an inhibitory concentration at the 90% level, which refers to growth in some studies and to a panel of isolates in others) in [7] was 64 µg/mL; in experiment [8], 64 µg/mL; in [2], 16 µg/mL; in [3], 128 µg/mL. Besides, the “MIC range, single drug” value in experiment [7] was 16 to 64 µg/mL; in [8] it was 16 to 64 µg/mL; in experiment [2], 1 to 16 µg/mL; in experiment [3], 4 to 128 µg/mL.

`CNC(C)C1CCC(N)C(OC2C(N)CC(N)C(OC3OCC(C)(O)C(NC)C3O)C2O)O1` (stereo not drawn) [Gentamicin, gentamicin]: the MIC was determined as 0.5 µg/mL in experiment [1], 2 µg/mL in experiment [6] and 0.5 µg/mL (≈ 1.05 µM) in experiment [4]. The MIC50 in experiment [7] is 32 µg/mL; in experiment [8] it was 8 µg/mL; in [2], 2 µg/mL; in [3] it was 8 µg/mL. In addition, the MIC90 was 64 µg/mL in experiment [7], 32 µg/mL in [8], 2 µg/mL in experiment [2] and 8 µg/mL in experiment [3]. Besides, the “MIC range, single drug” value in experiment [7] was 0.25 to 64 µg/mL; in [2], 1 to 64 µg/mL; in experiment [3] it was 8 to 16 µg/mL.

Take `CC(C)C[C@@H]1NC(=O)[C@@H](Cc2ccccc2)NC(=O)[C@H](CCN)NC(=O)[C@@H](NC(=O)[C@H](CCN)NC(=O)[C@@H](N)[C@@H](C)O)CCNC(=O)[C@H]([C@@H](C)O)NC(=O)[C@H](CCN)NC(=O)[C@H](CCN)NC1=O` [PMBN, polymyxin B nonapeptide] (H-T[Dab][Dab][Dab][dF]L[Dab][Dab]T; lactam 3-C; N-terminus assumed): the “MIC in combination PMBN:ROB” value in experiment [9] (A. baumannii ATCC 12457, concentration of the labelled component) was 1 µg/mL; in experiment [10] (A. baumannii ATCC 19606, concentration of the labelled component) it was 1 µg/mL; in [11] (A. calcoaceticus human clinical isolate, concentration of the labelled component), 1.5 µg/mL; in [12] (E. coli ATCC 11229, concentration of the labelled component), 6 µg/mL; in experiment [1] (E. coli ATCC 25922, concentration of the labelled component) it was 6 µg/mL; in experiment [13] (K. pneumoniae ATCC 13883, concentration of the labelled component), 0.5 µg/mL. Also, the “MIC in combination PMBN:ROB” value was 0.75 µg/mL in experiment [6] (P. aeruginosa ATCC 27853, concentration of the labelled component) and 1:1 μg/ml in experiment [15] (P. putida ATCC 17428, concentration of the labelled component). For the same molecule, the “MIC, single drug” value was above 32 µg/mL in experiment [9] (ATCC 12457, 24 h); above 32 µg/mL in [10] (ATCC 19606, 24 h); above 32 µg/mL in [11] (24 h); above 32 µg/mL in experiment [12] (ATCC 11229, 24 h); above 32 µg/mL in experiment [1] (ATCC 25922, 24 h); above 32 µg/mL in experiment [13] (ATCC 13883, 24 h). The “MIC, single drug” value in experiment [6] (ATCC 27853, 24 h) was 2 µg/mL; in experiment [14], above 32 µg/mL; in experiment [15] (ATCC 17428, 24 h) it was 4 µg/mL. Moreover, the “fold reduction of the MIC of PMBN” value in experiment [16] is listed as 4- to 64 fold. Besides, the half-inhibitory concentration (IC50) – broadly, the midpoint of a concentration-inhibition curve – in experiment [17] was above 32 µg/mL.
